Assay results as given in the SangsterLogP compilation.

SMILES	logP
CS(=O)(=O)c1nnnn1-c1cccc(C(F)(F)F)c1	2.9
CN(C)c1ccc(-n2nnnc2S(C)(=O)=O)cc1	2.7
CS(=O)c1nnnn1-c1ccc([N+](=O)[O-])cc1 (stereo unspecified)	1.4
CCCCCCS(=O)(=O)c1nnnn1-c1ccc([N+](=O)[O-])cc1	4.3
Cc1ccc(-n2nnnc2S(C)(=O)=O)cc1	2.5
CC(=O)Oc1ccc(-n2nnnc2S(C)(=O)=O)cc1	1.6
CS(=O)(=O)c1nnnn1C1CCCCC1	2.1
CCCCCCCCS(=O)c1nnnn1-c1ccc([N+](=O)[O-])cc1 (stereo unspecified)	4.7
CCCS(=O)(=O)c1nnnn1-c1ccc([N+](=O)[O-])cc1	2.7
CS(=O)(=O)c1nnnn1Cc1ccc([N+](=O)[O-])cc1	2.1
CCCCCCS(=O)c1nnnn1-c1ccc([N+](=O)[O-])cc1 (stereo unspecified)	3.5
